*1 amine or outer side, *2 acyl side, *3 side chain or, on linkers, in order; H or OH if unused. Where a SMILES comes first, the peptide text is derived from it. Bridges are numbered along the chain shown (N, C = ends). mXylylene = c1cc(C[*:1])cc(C[*:2])c1
Assays:
LDHBtr [1] = biological target: T1, LDHBtr (Homo sapiens, UniProt P07195); assay: Microscale thermophoresis (MST), Example 1; assay type: binding
Protocol: (§1) MST measurements were performed on a Nanotemper Monolith NT.115 instrument (Nanotemper Technologies®, GmbH) using Red-dye-NHS fluorescent labeling. Each LDH (WT or truncated) sample, purified to homogeneity, was labeled with the Monolith RED-NHS 2nd generation labeling dye according to the supplied protocol (Nanotemper Technologies®, GmbH). Measurements were performed in 50 mM Na-Phosphate pH 7.6 and 100 mM NaCl containing 0.05% Tween-20 in premium treated capillaries (Nanotemper Technologies®, GmbH). The final concentrations of either labeled protein in the assay were 100 nM. The ligands (NADH and peptides) were titrated in 1:1 dilutions following manufacturer's recommendations. All binding reactions were incubated 5′ at room temperature after loading into capillaries. Experiments were performed in triplicates using 40% LED power and medium MST power, LaserOn time was 20 sec, Laser Off time 3 sec. Linear octapeptides were evaluated for their thermophoretic pattern.

LDHBtr [2] = biological target: T1, LDHBtr; assay: NMR WaterLOGSY binding screening
Protocol: All experiments were acquired on a Bruker Ascend Avance III 600 MHz equipped with a broadband cryoprobe (Bruker® GmBH, Germany)
(§2) NMR WaterLOGSY was performed on samples prepared in 10% D2O buffer containing 50 mM sodium phosphate buffer, pH 7.6 and 100 mM NaCl. The concentration of LDH subunits was 15-20 μM. Ligand binding was detected using a NMR WaterLOGSY ephogsygpno.2 advance-version sequence with a […]. Water signal suppression was achieved using excitation sculpting scheme and a 50 ms spinlock was used to suppress protein background signal. For each experiment, 512 scans were collected to yield a 16K points FID. NMR WaterLOGSY intensity was corrected by plotting the intensity difference of the ligand NMR WaterLOGSY spectra recorded in the presence and absence of protein.
For NMR WaterLOGSY screening experiments a correction factor was applied to account for slight concentration variation between samples. To do so, 8 scans 1H NMR spectra with 50 ms spinlock were recorded before NMR WaterLOGSY experiments. The intensity ratio of the aliphatic region (0.700 ppm to 0.955 ppm) with and without protein was used as a correction factor to compare the NMR WaterLOGSY intensity of the polypeptides of interest with and without LDH subunits. An arbitrary threshold of 0.1, corresponding to a 10% decrease in the NMR WaterLOGSY signal intensity between the spectra with and without protein, was set to discriminate between binders and non-binders.

rabbit LDH5 (rLDH5) = biological target: T2, rabbit LDH5 (rLDH5) (Oryctolagus cuniculus, UniProt P13491); assay: Denaturation assay: rLDH5 fluorescence recovery after acidic exposure; assay type: biochemical; conditions: 200 nM rLDH5, 50 μM peptide, pH 5 then neutral pH
T2 construct: purchased Sigma-Aldrich
Protocol: Rabbit LDHA commercial solution (Sigma-Aldrich®) in an ammonium sulfate suspension (pH-7, 3.2 M) was first diluted to 1 mg/ml in a solution of NaCl 200 mM and then dialyzed at 4° C. 2×2 h against 200 mM NaCl. The stock solution of 1 mg/ml was then diluted to 30 μg/ml (800 nM) in NaCl 20 0 mM to give the assay solution. Assay solution was mixed 1:1 with acetate-chloride buffer (20 mM Acetic acid/Acetate, 180 mM NaCl, 1 mM DTT pH 5) and stored on ice for 30 minutes. Samples were then removed from ice and let warm up for 2 minutes. The acidic solution was then diluted 1:1 with a 250 mM phosphate buffer (pH 7.6) containing or not the inhibitory peptide to yield a 7.5 μg/ml (200 nM) final concentration of re-associating LDHA. Samples of the resulting solutions were then subjected to kinetic experiments of the recovery of intrinsic fluorescence (Exc=286 nm, Em=350 nm, 10′, rt).
An experiment was thus designed to follow the recovery of LDH tetramers after a dissociation step initiated by acidic conditions. […] Monitoring of the rLDH5 tetrameric state was performed by following its intrinsic tryptophan fluorescence: 6 tryptophan residues can be found in each rLDHA monomer, three of them being located at the dimer-dimer interface. As the tryptophan quantum yield decreases in a polar environment, dimeric LDHs show very weak tryptophan fluorescence compared to the tetrameric form. […] Such decay can be compared to the difference in tryptophan fluorescence between tetrameric LDH1 and dimeric LDHBtr.

rabbit LDHA (LDH-M) = biological target: T3, rabbit LDHA (LDH-M) (Oryctolagus cuniculus, UniProt P13491); assay: Intrinsic fluorescence assay: recovery of tryptophan fluorescence after acidic dissociation, Example 1; assay type: biochemical; conditions: pre-dissociation at pH 5.0, neutralization; LT018 50 μM, LB8 up to 100 μM
T3 construct: purchased Sigma-Aldrich
Protocol: Following described procedure; rabbit LDHA commercial solution in an ammonium sulfate suspension in (pH-7.0, 3.2 M) was first diluted to 1 mg/ml in a solution of NaCl 200 mM and then dialyzed at 4° C. 2×2 h against 200 mM NaCl. The stock solution of 1 mg/ml was then diluted to 30 μg/ml in NaCl 200 mM to give the assay solution.
Assay solution was mixed 1:1 with either an acetate-chloride buffer (20 mM Acetic acid/Acetate, 180 mM NaCl, pH 5.0) or phosphate buffer (250 mM phosphate pH 7.6). After storage at 4° C. for 30′, samples were removed and diluted 1:1,250 mM phosphate buffer (pH 7.6) to yield a 7.5 μg/ml final concentration of re-associating LDH-M.
Samples of the resulting solutions were then subjected to kinetic experiments of the recovery of intrinsic fluorescence (Exc=286 nm, Em=350 nm, 10′, rt). Full tryptophan fluorescence spectra were afterward recorded (Exc=286 nm, Em=320-400 nm, rt).
To confirm this hypothesis, experiments were therefore designed to follow the recovery of the LDH tetrameric form after a pre-dissociation initiated in slightly acidic conditions. Briefly, six tryptophan residues are found in the LDH structure, three of them being located at the dimer-dimer interface. As the tryptophan quantum yield decreases in polar environment, dimeric LDHs show very weak tryptophan fluorescence compared to tetrameric one. […] The recovery of fluorescence upon pH neutralization is therefore a direct measure of the tetramer re-association.

full length LDH1 enzyme = full length LDH1 enzyme (Homo sapiens, UniProt P07195); assay: Biochemical/biophysical evaluation of interaction with full length tetrameric LDHB; assay type: binding
Protocol: as §2
as §1, with “The ligands (NADH and peptides) were titrated in 1:1 dilutions following manufacturer's recommendations. All binding reactions were incubated 5′ at room temperature after loading into capillaries. Experiments were performed in triplicates using 40% LED power and medium MST power, LaserOn time was 20 sec, Laser Off time 3 sec.” left out

[3] = linear peptides at 800 μM, LDHBtr 15 μM

T1 sequence (P07195 21-334): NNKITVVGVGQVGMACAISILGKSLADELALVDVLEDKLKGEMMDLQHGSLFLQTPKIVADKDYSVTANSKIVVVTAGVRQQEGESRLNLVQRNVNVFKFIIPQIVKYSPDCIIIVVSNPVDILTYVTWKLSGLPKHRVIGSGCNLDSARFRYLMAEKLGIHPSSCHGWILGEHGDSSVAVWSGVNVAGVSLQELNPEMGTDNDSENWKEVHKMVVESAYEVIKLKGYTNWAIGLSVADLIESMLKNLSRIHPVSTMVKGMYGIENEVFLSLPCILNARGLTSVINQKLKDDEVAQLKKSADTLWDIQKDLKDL
Sequence of full length LDH1 enzyme (P07195 whole entry): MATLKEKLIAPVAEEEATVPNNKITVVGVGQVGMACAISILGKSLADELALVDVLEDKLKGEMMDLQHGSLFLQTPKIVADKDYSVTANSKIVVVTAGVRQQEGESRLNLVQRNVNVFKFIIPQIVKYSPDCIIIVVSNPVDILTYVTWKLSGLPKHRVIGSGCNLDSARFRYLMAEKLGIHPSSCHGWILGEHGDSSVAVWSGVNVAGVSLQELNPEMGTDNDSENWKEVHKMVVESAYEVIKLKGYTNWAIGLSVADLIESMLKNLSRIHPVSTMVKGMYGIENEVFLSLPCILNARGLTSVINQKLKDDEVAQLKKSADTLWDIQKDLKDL

Kd (LDHBtr [1]; linear peptides, read-out: Kd using MST experiment)	Binding using WaterLOGSY (800 μM) (LDHBtr [2]; [3])	LDH5 fluorescence recovery after acidification (rabbit LDH5 (rLDH5))	recovery of fluorescence intensity after denaturation (LDH re-association) (rabbit LDHA (LDH-M))	NMR WaterLOGSY signal / saturation transfer (LDHBtr [2])	Interaction with full length LDH1 / competition with LDHB native arm (full length LDH1 enzyme)	increase in potency compared to LB8 (LDHBtr [1]; Kd by MST)	Binding using WaterLOGSY (800 μM) (LDHBtr [2]; cyclic peptides at 800 μM)	Molecule
1400 µM	+ (binders)	no effect	no effects up to 100 μM					CC[C@H](C)[C@H](NC(=O)[C@H](CC(C)C)NC(=O)[C@H](CCCCN)NC(=O)[C@H](CCC(=O)O)NC(=O)[C@H](CCCCN)NC(=O)[C@H](CC(C)C)NC(=O)[C@@H](NC(=O)[C@H](C)N)[C@@H](C)O)C(N)=O [LB8, ATLKEKLI] (H-ATLKEKLI-NH2; N-terminus assumed)
	+ (binders)			positive signal	no interaction			CC[C@H](C)[C@H](NC(=O)[C@H](CC(C)C)NC(=O)[C@H](CCCCN)NC(=O)[C@H](CCC(=O)O)NC(=O)[C@H](CCCCN)NC(=O)[C@H](CC(C)C)NC(=O)[C@@H](NC(=O)[C@H](C)N)[C@@H](C)O)C(=O)N[C@@H](C)C(=O)N1CCC[C@H]1C(=O)N[C@H](C(=O)N[C@@H](C)C(=O)N[C@@H](CCC(=O)O)C(=O)N[C@@H](CCC(=O)O)C(=O)N[C@@H](CCC(=O)O)C(=O)N[C@@H](C)C(=O)N[C@H](C(=O)N[C@H](C(=O)N1CCC[C@H]1C(N)=O)C(C)C)[C@@H](C)O)C(C)C [LB19, ATLKEKLIAPVAEEEATVP] (H-ATLKEKLIAPVAEEEATVP-NH2; N-terminus assumed)

Molecule	Kd (LDHBtr [1]; linear peptides, read-out: Kd using MST experiment)	Binding using WaterLOGSY (800 μM) (LDHBtr [2]; [3])	LDH5 fluorescence recovery after acidification (rabbit LDH5 (rLDH5))	recovery of fluorescence intensity after denaturation (LDH re-association) (rabbit LDHA (LDH-M))	NMR WaterLOGSY signal / saturation transfer (LDHBtr [2])	Interaction with full length LDH1 / competition with LDHB native arm (full length LDH1 enzyme)	increase in potency compared to LB8 (LDHBtr [1]; Kd by MST)	Binding using WaterLOGSY (800 μM) (LDHBtr [2]; cyclic peptides at 800 μM)
CC[C@H](C)[C@H](NC(=O)[C@H](CC(C)C)NC(=O)[C@H](CCCCN)NC(=O)[C@@H]1CSCc2cccc(c2)CSC[C@H](N)C(=O)N[C@@H]([C@@H](C)O)C(=O)N[C@@H](CC(C)C)C(=O)N[C@@H](CCCCN)C(=O)N1)C(N)=O [LT018, CTLKCKLI] (H-CTLKCKLI-NH2; linker 1-5 via mXylylene; N-terminus assumed)				nicely interfered with the fluorescence recovery at 50 μM	intense saturation transfer	not able to compete with LDHB native arm	30 fold	+ (binders)
Ac-LIAPVAE-NH2 [LBc, LB19 central fragment evaluated as a negative control, reference compound]		− (non-binders)	no effect	no effect	not to demonstrate any appreciable saturation transfer			
